Test system: HeLa; call rule not given here
Test: Downregulation of PMA-induced H1R mRNA expressed in human HeLa cells incubated for 1 hr prior to PMA stimulation by RT-PCR method
Format: functional, cell-based
[1] = Homo sapiens, HeLa, read-out: IC50

| SMILES | IC50 [1] [µM] | IC50 (hela, read-out: IC50) [µM] | IC50 (hela) |
| --- | --- | --- | --- |
| COc1cc2occc2cc1C(N)=O | 49.1 |  |  |
| NC(=O)c1cc2ccoc2cc1O | 84.6 |  |  |
| COc1cc2occc2cc1C(=O)O |  |  | Not Active |

Further lines, results first:

| IC50 [1] [µM] | IC50 (hela, read-out: IC50) [µM] | IC50 (hela) | SMILES |
| --- | --- | --- | --- |
| 75.3 | 83.7 |  | COc1c(C(N)=O)ccc2occc12 |
|  |  | Not Active | NC(=O)c1ccc2occc2c1O |
|  |  | Not Active | COc1c(C(=O)O)ccc2occc12 |

Source: ChEMBL document CHEMBL3632618, “The isolation and synthesis of a novel benzofuran compound from Tephrosia purpurea, and the synthesis of several related derivatives, which suppress histamine H1 receptor gene expression” (Bioorg Med Chem, 2015)
